Data from paper PMC4929558, “A novel AhR ligand, 2AI, protects the retina from environmental stress” (Scientific Reports, 2016).

Columns and labels:
[1] = target: T1, human AhR protein (humanized AhR liver cytosol) (Homo sapiens, UniProt P35869); assay: photoaffinity ligand competition, hepatic cytosol; type: binding; settings: competition with 2-azido-3-[125I]iodo-7,8-dibromodibenzo-p-dioxin (0.21 pmol, saturating), 150 μg liver protein, room temperature 20 min, then UV 402 nm
T1 construct: human AhR expressed in liver of humanized transgenic mice, B6.Cg-Ahr^tm3.1Bra Tg (Alb-cre, Ttr-AhR)1GHP; hepatic cytosol, not purified
T1 sequence (P35869 11-848): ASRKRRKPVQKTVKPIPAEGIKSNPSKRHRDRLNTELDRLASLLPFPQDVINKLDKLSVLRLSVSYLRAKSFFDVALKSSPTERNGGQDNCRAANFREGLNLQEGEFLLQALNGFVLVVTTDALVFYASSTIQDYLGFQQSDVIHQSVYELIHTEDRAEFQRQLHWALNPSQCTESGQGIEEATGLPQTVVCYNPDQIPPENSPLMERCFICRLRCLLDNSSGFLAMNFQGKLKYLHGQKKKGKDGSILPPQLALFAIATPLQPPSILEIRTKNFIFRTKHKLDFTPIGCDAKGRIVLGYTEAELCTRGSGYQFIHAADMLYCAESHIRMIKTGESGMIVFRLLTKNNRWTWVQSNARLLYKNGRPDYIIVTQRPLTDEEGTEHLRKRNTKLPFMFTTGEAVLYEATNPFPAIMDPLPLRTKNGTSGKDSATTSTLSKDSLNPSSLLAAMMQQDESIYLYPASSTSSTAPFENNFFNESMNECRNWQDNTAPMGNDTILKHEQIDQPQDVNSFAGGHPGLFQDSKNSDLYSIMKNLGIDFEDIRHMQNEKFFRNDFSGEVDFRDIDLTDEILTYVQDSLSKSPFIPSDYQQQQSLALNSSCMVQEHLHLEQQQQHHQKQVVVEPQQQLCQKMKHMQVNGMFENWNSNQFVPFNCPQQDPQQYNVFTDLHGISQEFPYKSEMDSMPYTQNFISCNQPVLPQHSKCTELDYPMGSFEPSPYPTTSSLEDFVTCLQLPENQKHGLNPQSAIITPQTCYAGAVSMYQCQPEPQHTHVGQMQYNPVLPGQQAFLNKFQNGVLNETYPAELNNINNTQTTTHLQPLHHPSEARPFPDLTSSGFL

[2] = target: T2, AhR (XRE-luciferase reporter assay) (Homo sapiens, UniProt P35869); assay: XRE-luciferase reporter assay in cells; type: cell-based; settings: agonist
T2 construct: with Aryl hydrocarbon receptor nuclear translocator
T2 sequence (P35869 11-848): T1 sequence (P35869 11-848)

[3] = target: T1, human AhR protein (humanized AhR liver cytosol); assay: photoaffinity labelling, SDS-PAGE, gamma counting; type: binding; settings: labelled compound; covalent after UV photolysis; 0.21 pmol per tube, 150 μg liver protein

SMILES | % photoaffinity label bound [1] | EC50 [2] [µM] | photoaffinity labelling, SDS-PAGE, gamma counting [3]
Nc1ccccc1-c1cc2ccccc2[nH]1 [2AI] | 2AI was able to out-compete the photoaffinity label bound to the human AhR protein | 3.5 | –
[N-]=[N+]=Nc1cc2c(cc1I)Oc1cc(Br)c(Br)cc1O2 [PAL, 2-azido-3-[125I]iodo-7,8-dibromodibenzo-p-dioxin] | – | – | Labeled AHR bands were excised and counted using a γ counter
